Values of other authors in article PMC12506672, “A phase I study of HEC73543, an oral FLT3 inhibitor: the effect of food on pharmacokinetics after oral dosing in healthy Chinese volunteers” (Frontiers in Pharmacology, 2025).

Assays:
[1] = parameters: method as in James et al., 2020; conditions: high-fat meal, healthy subjects; ref James et al., 2020
[2] = test system: FLT3-ITD–positive leukemia samples; parameters: method as in Cucchi et al., 2018; conditions: ex vivo, especially high allelic ratio (AR ≥ 0.5); ref Cucchi et al., 2018
[3] = parameters: method as in Kim, 2017; conditions: standard or high-fat meal compared to fasting; ref Kim, 2017

Row | Compound | GLSM ratio (fed/fasted %) for AUC0–t [1] [%] | GLSM ratio (fed/fasted %) for AUC0–∞ [1] [%] | GLSM ratio (fed/fasted %) for AUC72 [1] [%] | GLSM ratio (fed/fasted %) for Cmax [1] [%] | colony-forming capacity [2] | delay of Tmax with food [3] [h] | increase of AUC exposure with food [3] | lowering of Cmax with food [3]
1 | CCc1nc(C(N)=O)c(Nc2ccc(N3CCC(N4CCN(C)CC4)CC3)c(OC)c2)nc1NC1CCOCC1 [gilteritinib] | 94.6 | 93.8 | 91.0 | 74.0 | markedly suppresses |  |  | 
2 | CO[C@@H]1[C@H](N(C)C(=O)c2ccccc2)C[C@H]2O[C@]1(C)n1c3ccccc3c3c4c(c5c6ccccc6n2c5c31)C(=O)NC4 [midostaurin] |  |  |  |  |  | 2.5 to 3 | 1.2- to 1.6 fold | 20%–27%
